The subject of test [1] is Bacteria. The test can be described thus: Inhibition of bacterial IMP-1 assessed as substrate hydrolysis at 50 uM using imipenem as substrate by spectrophotometric analysis relative to control.
Test [2] relates to Escherichia coli. Nature of the test: Potentiation of meropenem induced antibacterial activity against blaNDM-4 producing Escherichia coli SI-G001 assessed as reduction in meropenem MIC at 32 ug/ml (reference value: 128 ug/ml). It is filed as functional. The note with it: dose 32 µg/ml.
In test [3] the target is T1, Metallo-beta-lactamase type 2 (Bacteria, UniProt C7C422). The test can be described thus: Competitive inhibition of NDM-1 using imipenem as substrate by spectrophotometric analysis.
The target in test [4] is Metallo-beta-lactamase type 2 (Bacteria) (UniProt C7C422). Nature of the test: Inhibition of bacterial NDM-1 assessed as substrate hydrolysis at 50 uM using imipenem as substrate by spectrophotometric analysis relative to control.
Test [5] concerns Escherichia coli. The test can be described thus: Potentiation of meropenem induced antibacterial activity against blaNDM-1 producing Escherichia coli SI-004M assessed as reduction in meropenem MIC at 32 ug/ml (reference value: 64 ug/ml). It is filed as functional. As to conditions: dose 32 µg/ml.
In test [6] the test system is Bacteria. Nature of the test: Inhibition of bacterial VIM-2 assessed as substrate hydrolysis at 50 uM using imipenem as substrate by spectrophotometric analysis relative to control.
The subject of another test is Klebsiella pneumoniae. Nature of the test: Potentiation of meropenem induced antibacterial activity against blaNDM-1 producing Klebsiella pneumoniae SI-518 assessed as reduction in meropenem MIC at 32 ug/ml (reference value: 128 ug/ml). It is filed as functional. The note with it: dose 32 µg/ml.
Test [7] has as its system Bacteria. Nature of the test: Inhibition of bacterial IMP-1 assessed as substrate hydrolysis at 100 uM using imipenem as substrate by spectrophotometric analysis relative to control.
Test [8] has as its system Bacteria. Nature of the test: Inhibition of bacterial VIM-2 assessed as substrate hydrolysis at 100 uM using imipenem as substrate by spectrophotometric analysis relative to control.
Test [9] has as its target Metallo-beta-lactamase type 2 (Bacteria) (UniProt C7C422). The test can be described thus: Inhibition of bacterial NDM-1 assessed as substrate hydrolysis at 100 uM using imipenem as substrate by spectrophotometric analysis relative to control.
The target in test [10] is T1, Metallo-beta-lactamase type 2. The test can be described thus: Inhibition of bacterial NDM-1.

In ChEMBL document CHEMBL5356995, “Aurones and derivatives as promising New Delhi metallo-β-lactamase (NDM-1) inhibitors” (Bioorg Med Chem, 2024) one finds inhibition, MIC and Ki data, which are given here for eleven molecules.

Chain of Metallo-beta-lactamase type 2 (Bacteria) (C7C422 whole entry): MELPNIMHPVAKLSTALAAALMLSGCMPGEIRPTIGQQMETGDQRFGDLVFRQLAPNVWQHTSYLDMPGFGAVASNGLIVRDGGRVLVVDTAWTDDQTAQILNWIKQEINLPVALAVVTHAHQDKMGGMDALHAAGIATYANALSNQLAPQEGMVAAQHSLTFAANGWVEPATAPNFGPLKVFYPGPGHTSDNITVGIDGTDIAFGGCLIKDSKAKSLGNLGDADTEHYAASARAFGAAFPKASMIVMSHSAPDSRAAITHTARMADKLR
T1 sequence (C7C422 whole entry): as above

Regarding `O=C1/C(=C/c2ccc(N3CCCCC3)cc2)Oc2cc(O)cc(O)c21`, the inhibition in the test with Bacteria [1] turned out to be 20%; in test [4] it was 74%; in the test on Bacteria [6], 17%. In addition, the results for the MIC in the test on Escherichia coli [2], in the test on Escherichia coli [5] and in the test with Klebsiella pneumoniae were 128 µg/mL, 64 µg/mL and 64 µg/mL, respectively. This molecule also showed a Ki in test [3] of 4.8 µM.

`O=C(O)[C@H](CCCn1c(-c2ccccc2)n[nH]c1=S)N(Cc1c[nH]cn1)Cc1c[nH]cn1`: the inhibition in the test with Bacteria [7] was found to be 40%; with Bacteria [8], 96%; in test [9], 97%. For the same molecule, the MIC in the test on Escherichia coli [2], in the test on Escherichia coli [5] and in the test on Klebsiella pneumoniae was at most 0.5 µg/mL each time.

The molecule `N[C@@H](CN[C@@H](CN[C@@H](CC(O)O)C(=O)O)C(=O)O)C(=O)O` came in with a Ki in test [10] of 0.011 µM.

Regarding `O=C1/C(=C/c2cn(CCCc3ccccc3)c3ccccc23)Oc2cc(O)cc(O)c21`, the results for the inhibition (in the test with Bacteria [1]; in test [4]; in the test with Bacteria [6]) were 41%, 68.7% and below 10%, respectively. Further, the MIC in the test with Escherichia coli [2] turned out to be 64 µg/mL; in the test with Escherichia coli [5], 32 µg/mL; with Klebsiella pneumoniae, 32 µg/mL. The Ki in test [3] stood at 17 µM.

`O=C1/C(=C/c2cn(Cc3cccc(Br)c3)c3ccccc23)Oc2cc(O)cc(O)c21`: the inhibition in the test with Bacteria [1] is 43%; in [4] it was 69%; in the test on Bacteria [6], below 10%. Moreover, the MIC amounted to 64 µg/mL in the test on Escherichia coli [2], 32 µg/mL in the test with Escherichia coli [5] and 32 µg/mL with Klebsiella pneumoniae. This molecule also yielded a Ki in test [3] of 5.5 µM.

Consider `O=C1/C(=C/c2cn(Cc3cccc(O)c3)c3ccccc23)Oc2cc(O)cc(O)c21`, for which the inhibition with Bacteria [1] was 31%; in test [4] it was 78%; in the test on Bacteria [6], below 10%. Also, the MIC amounted to 128 µg/mL in the test on Escherichia coli [2], 64 µg/mL in the test on Escherichia coli [5] and 64 µg/mL in the test on Klebsiella pneumoniae. In [3], this molecule registered a Ki of 16 µM.

For `COc1ccc(/C=C2\Oc3c(ccc(O)c3O)C2=O)c(O)c1`, the results for the inhibition (in the test with Bacteria [1]; in [4]; in the test with Bacteria [6]) were 49%, 84.5% and below 10%, respectively. Further, the MIC with Escherichia coli [2] was 128 µg/mL; in the test on Escherichia coli [5] it was 32 µg/mL; in the test on Klebsiella pneumoniae it was 32 µg/mL. Moreover, in test [3], the affinity, expressed as Ki, was 1.7 µM.

Consider `O=C1/C(=C/c2ccc(O)c(O)c2)Cc2cc(O)cc(O)c21`, for which, in test [10], the Ki worked out at 4.1 µM.

In test [10], `O=C(O)CN1CCN(CC(=O)O)CCN(CC(=O)O)CC1` yielded a Ki of 5.1 µM.

For the molecule `O=C1/C(=C/c2cn(CC3CCCCC3)c3ccccc23)Oc2cc(O)cc(O)c21`, the figures for the inhibition (in the test on Bacteria [1]; in [4]; in the test with Bacteria [6]) were 44%, 72% and below 10%, respectively. In addition, the MIC with Escherichia coli [2] is 64 µg/mL; in the test on Escherichia coli [5] it was 64 µg/mL; with Klebsiella pneumoniae it was 16 µg/mL. The same molecule had a Ki in test [3] of 2.5 µM.

For `O=C1/C(=C/c2ccc3ccccc3c2)Oc2c1ccc(O)c2O`, the inhibition in the test on Bacteria [1] is 19%; in test [4], 50%; in the test on Bacteria [6], below 10%.

As a reminder, the inhibition is how much of the control response was suppressed. The term MIC denotes the least concentration at which growth counts as inhibited. Usually Ki stands for a measure of affinity in units of concentration, obtained from inhibition or displacement. Read a low Ki as a stronger hold on the target.
